Laboratory results taken from ChEMBL document CHEMBL1150792, “Enterobacteriaceae bloodstream infections: presence of integrons, risk factors, and outcome” (2007).

Key:
[1] = test system: Enterobacteriaceae; test: Antimicrobial activity against non-integron carrying Enterobacteriaceae assessed as percent resistant isolates; format: functional
[2] = test system: Enterobacteriaceae; test: Antimicrobial activity against integron carrying Enterobacteriaceae assessed as percent resistant isolates; format: functional

Compound	Activity [1] [%]	Activity [2] [%]
CCN1CCN(C(=O)N[C@@H](C(=O)N[C@@H]2C(=O)N3[C@@H]2SC(C)(C)[C@@H]3C(=O)O)c2ccccc2)C(=O)C1=O [PIPERACILLIN]	32.1	90.2
C[C@H]1[C@H](NC(=O)/C(=N\OC(C)(C)C(=O)O)c2csc(N)n2)C(=O)N1S(=O)(=O)O [AZTREONAM]	9.4	26.9
CC1(C)S[C@@H]2[C@H](NC(=O)[C@H](N)c3ccccc3)C(=O)N2[C@H]1C(=O)O [AMPICILLIN]	60	96.3
C[C@@H](O)[C@H]1C(=O)N2C(C(=O)O)=C(SCCNC=N)C[C@H]12 [IMIPENEM ANHYDROUS]	1.2	7.6
CC(C)(O/N=C(\C(=O)N[C@@H]1C(=O)N2C(C(=O)[O-])=C(C[n+]3ccccc3)CS[C@H]12)c1csc(N)n1)C(=O)O [CEFTAZIDIME]	4.9	36.3
CO/N=C(\C(=O)N[C@@H]1C(=O)N2C(C(=O)O)=C(COC(N)=O)CS[C@H]12)c1ccco1 [CEFUROXIME]	21.9	46.9
COLISTIMETHATE SODIUM	12.5	12.5
CO/N=C(\C(=O)N[C@@H]1C(=O)N2C(C(=O)O)=C(COC(C)=O)CS[C@H]12)c1csc(N)n1 [CEFOTAXIME]	6.9	41.3
O=C(O)c1cn(C2CC2)c2cc(N3CCNCC3)c(F)cc2c1=O [CIPROFLOXACIN]	6.9	49.4
NCC[C@H](O)C(=O)N[C@@H]1C[C@H](N)[C@@H](O[C@H]2O[C@H](CN)[C@@H](O)[C@H](O)[C@H]2O)[C@H](O)[C@H]1O[C@H]1O[C@H](CO)[C@@H](O)[C@H](N)[C@H]1O [AMIKACIN]	4.2	29.7
COc1cc(Cc2cnc(N)nc2N)cc(OC)c1OC.Cc1cc(NS(=O)(=O)c2ccc(N)cc2)no1 [CO-TRIMOXAZOLE]	14.5	87.7
CO/N=C(\C(=O)N[C@@H]1C(=O)N2C(C(=O)[O-])=C(C[N+]3(C)CCCC3)CS[C@H]12)c1csc(N)n1 [CEFEPIME]	6.2	29.5
C[C@@H](O)[C@H]1C(=O)N2C(C(=O)O)=C(S[C@@H]3CN[C@H](C(=O)N(C)C)C3)[C@H](C)[C@H]12 [MEROPENEM]	2	6
NC[C@H]1O[C@H](O[C@H]2[C@H](O)[C@@H](O[C@H]3O[C@H](CO)[C@@H](O)[C@H](N)[C@H]3O)[C@H](N)C[C@@H]2N)[C@H](N)C[C@@H]1O [TOBRAMYCIN]	8.5	41.8
CO[C@@]1(NC(=O)Cc2cccs2)C(=O)N2C(C(=O)O)=C(COC(N)=O)CS[C@@H]21 (single isomer, unassigned) [CEFOXITIN]	16.6	40
